Data published in patent US11352360B2, “TGF-beta inhibitors” (Rigel Pharmaceuticals, Inc., priority 2015, dated 2022).

Legend:
[1] = test system: TGF-β signaling (p-SMAD-3 Ser423/425); test: AlphaScreen SureFire SMAD3 (p-Ser423/425) assay, TGF-β-stimulated; assay type: cell-based; settings: inhibition of TGF-β signaling, pSMAD, MPC-11
[2] = test system: GDF8 signaling (p-SMAD-3 Ser423/425); test: AlphaScreen SureFire SMAD3 (p-Ser423/425) assay, GDF8-stimulated; assay type: cell-based; settings: inhibition of GDF8 signaling, pSMAD, MPC11; read-out: GDF8 (GDF pSMAD (MPC11))

**Q.** `COc1ccc(-c2nc(N)sc2-c2ccc3[nH]ncc3c2)cc1` [Compound 157, 5-(1H-indazol-5-yl)-4-(4-methoxyphenyl)thiazol-2-amine] was tested. Which IC50 [1] did it give?
**A.** Its IC50 is 160 nM.

**Q.** What about the IC50 [2] of the same compound?
**A.** The IC50 was 25.6 nM.
